Laboratory results reported in publication PMC10444810, “Induction of open-form bile canaliculus formation by hepatocytes for evaluation of biliary drug excretion” (Communications Biology, 2023).
“And” between values parts separate entries of the source, which are not always exact repeats. Identical values can stand only once. Like-named read-outs stand apart in the source and are kept apart here.

T1: OCT1 (Homo sapiens, UniProt O15245)
T1 sequence (O15245 1-554): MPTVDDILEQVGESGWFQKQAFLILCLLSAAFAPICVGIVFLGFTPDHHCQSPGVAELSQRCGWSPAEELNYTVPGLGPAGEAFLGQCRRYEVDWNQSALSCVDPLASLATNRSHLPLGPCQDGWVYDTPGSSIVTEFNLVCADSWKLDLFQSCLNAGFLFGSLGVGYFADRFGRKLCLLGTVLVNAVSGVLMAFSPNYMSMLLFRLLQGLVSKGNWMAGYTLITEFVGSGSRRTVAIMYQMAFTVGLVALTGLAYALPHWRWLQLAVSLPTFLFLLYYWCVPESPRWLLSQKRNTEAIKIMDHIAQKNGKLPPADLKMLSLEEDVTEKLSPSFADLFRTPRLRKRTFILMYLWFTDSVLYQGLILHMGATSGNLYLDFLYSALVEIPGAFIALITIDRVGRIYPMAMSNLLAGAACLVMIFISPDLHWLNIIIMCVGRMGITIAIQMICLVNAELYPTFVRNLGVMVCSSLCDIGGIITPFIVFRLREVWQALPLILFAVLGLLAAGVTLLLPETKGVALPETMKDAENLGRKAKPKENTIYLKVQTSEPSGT


Columns and labels:
[1] = Reported human in vivo biliary excretion clearance and intrinsic clearance estimated from it (Eq. 4)
[2] = system: sandwich-cultured PXB-cells; settings: human, 1 μM
[3] = cited from earlier work; for Observed in vivo CLbile: human
[4] = cited from earlier work
[5] = blood/plasma concentration ratio, cited from earlier work
[6] = icHep permeation assay (sinusoidal to bile side) to estimate drug biliary excretion clearance; settings: human
[7] = biological target: T1, OCT1; settings: for Uptake / CLuptake: single wells; for CLuptake, Mean: mean of wells
[8] = system: primary human hepatocytes / PXB-cells; test: Counting hepatocyte bile canaliculi opening to the culture equipment (hemi-lumen formation rate); assay type: cell-based; settings: for hemi-lumen formation rate: PXB-cells (donor), supports individually coated with each claudin; for Open bile canalicular formation rate (%) Mean / Open bile canalicular formation rate (%): icHep (JFC), claudin coating; for Open bile canalicular formation rate (%) Mean: mean of 3; for Open bile canalicular formation rate (%): single replicate
Experimental: Transwell^TM permeable support used was coated with 50 μg/ml rat tail collagen I (Corning) in 0.02 N acetic acid at room temperature for 1 h. Transwell^TM was washed twice with PBS, then the in vitro-synthesised claudin-1, -2, -3, and -9 proteins were applied to Transwell^TM at a density of 750 ng/cm^2 each and incubated at room temperature for 1 h. Transwell^TM was washed twice with PBS before seeding cells. Cryopreserved human hepatocytes (Donor ID. HU1663) were purchased from Thermo Fisher Scientific and thawed using CHRM. The hepatocytes were then diluted with WEM containing CM3000. PXB-cells (Donor ID. JFC, and HUM181001B) were obtained from PhoenixBio (Hiroshima, Japan) as described previously. […] PXB-cells were resuspended in 2% DMSO-supplemented hepatocyte growth medium (d-HCGM)[27]. Cryopreserved human hepatocytes and PXB-cells were seeded at a density of 2.1 × 10^5 cells/cm^2 in the protein-coated culture equipment. After 4 h of incubation, the culture medium was replaced with fresh culture medium to remove the unattached cells. After 24 h of incubation, the cells were cultured in d-HCGM supplemented with 250 μg/ml Matrigel. The spent medium was replaced with fresh medium every 3 days. Donor information for the human hepatocytes used is listed in Supplementary Table 2.
To count the open- and closed-type bile canaliculi, MRP2 immunostaining was performed using the Z-stack function of a confocal microscope (LSM710; Carl Zeiss, Oberkochen, Germany). Immunostaining was performed as previously described. The ratio of open-type bile canaliculi to the total number of bile canaliculi was calculated according to Eq. (1), and the value obtained was evaluated as the induction rate of open-type bile canaliculi. Here, Aopen bile canaliculi and Abile canaliculi indicate the number of open-type bile canaliculi and total number of bile canaliculi, respectively.1 Formationrate%=Aopenbilecanaliculi/Abilecanaliculi×100

[9] = estimated from observed CLbile with fp, Rb, Qh 1400 ml/min
[10] = estimated from observed in vivo CLbile with fp, Rb and Qh 1400 ml/min
[11] = reported in vivo biliary excretion clearance
[12] = unbound fraction of the plasma protein
[13] = unbound fraction, reported value
[14] = Biliary excretion clearance, in vitro, observed, CLbile, int, icHep (HUM181001B), CLbile,app of icHep minus control cells

Molecule | Observed in vivo CLbile, int [1, 9] | Observed in vivo CLbile, int [1, 10] | Predicted in vivo CLbile, int, Mean ([2]; 2 min) | BEI (%) Mean ([2]; 5 min) | Predicted in vivo CLbile, int, Mean ([2]; 5 min) | BEI (%) Mean ([2]; 10 min) | Predicted in vivo CLbile, int, Mean ([2]; 10 min) | Predicted in vivo CLbile, int, Mean ([2]; 20 min) | Observed in vivo CLbile [3, 11] | Observed in vivo CLbile ([3]; reported value) | fp [4, 12] | fp [4, 13] | Rb ([5]; reported value) | Rb [5] | hepatocyte CLint at 1 μM [6] | hepatocyte CLint at 1 μM [6, 14] | hemi-lumen formation rate [8] | Open bile canalicular formation rate (%) Mean [8] | Open bile canalicular formation rate (%) [8] | further results
CN/C(=N/CCSCc1nc[nH]c1C)NC#N [Cimetidine, cimetidine] | 12.3 mL/min | 12.3 mL/min | 2714 mL/min | 32.5% | 478 mL/min | 19.7% | 126 mL/min | 60.3 mL/min | 9.9 mL/min | 9.9 mL/min | 0.81 | 0.81 | 0.97 | 0.97 | 0.869 ± 0.0152 µL/min/1e6 cells | 0.453 ± 0.163 µL/min/1e6 cells |  |  |  | BEI (%) Mean ([2]; 2 min): 48.1%; BEI (%) Mean ([2]; 20 min): 19.6%; fp, unbound fraction of the plasma protein ([4]; reported value): 0.81[32]
CC[C@H]1OC(=O)[C@H](C)[C@@H](O[C@H]2C[C@@](C)(OC)[C@@H](O)[C@H](C)O2)[C@H](C)[C@@H](O[C@@H]2O[C@H](C)C[C@H](N(C)C)[C@H]2O)[C@](C)(O)C[C@@H](C)C(=O)[C@H](C)[C@@H](O)[C@]1(C)O [Erythromycin, erythromycin] | 285 mL/min | 285 mL/min | 2262 mL/min | 22.5% | 289 mL/min | 30.0% | 238 mL/min | 310 mL/min | 80.3 mL/min | 80.3 mL/min | 0.305 | 0.305 | 0.75 | 0.75 | 0.732 ± 0.0721 µL/min/1e6 cells | 0.793 ± 0.0723 µL/min/1e6 cells |  |  |  | BEI (%) Mean ([2]; 2 min): 46.3%; BEI (%) Mean ([2]; 20 min): 54.8%; Biliary excretion clearance, in vivo, observed, CLbile ([3]; in vivo): 80.3[36] ml/min; fp, unbound fraction of the plasma protein ([4]; plasma): 0.305[37]
CN(C)C(=N)N=C(N)N [Metformin] |  |  |  |  |  |  |  |  |  |  |  |  |  |  |  |  |  |  |  | Uptake ([7]; icHep (HUM181001B), incubation time 0.5 min): 2.903 ul/106 cells and 3.372 ul/106 cells and 2.496 ul/106 cells and 3.301 ul/106 cells; Uptake ([7]; icHep (HUM181001B), incubation time 1 min): 5.838 ul/106 cells and 5.176 ul/106 cells and 6.237 ul/106 cells and 6.072 ul/106 cells; Uptake ([7]; icHep (HUM181001B), incubation time 2 min): 12.5578 ul/106 cells and 11.8508 ul/106 cells and 13.1191 ul/106 cells and 15.8618 ul/106 cells; Uptake ([7]; icHep (HUM181001B), incubation time 5 min): 32.1771 ul/106 cells and 34.4238 ul/106 cells and 29.3661 ul/106 cells and 33.2229 ul/106 cells; CLuptake, Mean ([7]; icHep (HUM181001B)): 7.52 ul/min/106 cells; CLuptake ([7]; icHep (HUM181001B)): 6.72 ul/min/106 cells and 6.68 ul/min/106 cells and 6.88 ul/min/106 cells and 9.79 ul/min/106 cells; Uptake ([7]; icHep (JFC), incubation time 0.5 min): 3.7065 ul/106 cells and 4.783 ul/106 cells and 4.1818 ul/106 cells and 4.442 ul/106 cells; Uptake ([7]; icHep (JFC), incubation time 1 min): 7.468 ul/106 cells and 9.292 ul/106 cells and 7.7376 ul/106 cells and 10.2512 ul/106 cells; Uptake ([7]; icHep (JFC), incubation time 2 min): 17.213 ul/106 cells and 18.5255 ul/106 cells and 16.0946 ul/106 cells and 17.048 ul/106 cells; Uptake ([7]; icHep (JFC), incubation time 5 min): 50.6594 ul/106 cells and 43.7801 ul/106 cells and 38.495 ul/106 cells and 43.9119 ul/106 cells; CLuptake, Mean ([7]; icHep (JFC)): 8.82 ul/min/106 cells; CLuptake ([7]; icHep (JFC)): 7.5 ul/min/106 cells and 9.0 ul/min/106 cells and 7.1 ul/min/106 cells and 11.6 ul/min/106 cells
CN(Cc1cnc2nc(N)nc(N)c2n1)c1ccc(C(=O)N[C@@H](CCC(=O)O)C(=O)O)cc1 [Methotrexate, methotrexate] | 90.0 mL/min | 90.0 mL/min | 700 mL/min | 14.8% | 179 mL/min | 18.9% | 126 mL/min | 172 mL/min | 39.9 mL/min | 39.9 mL/min | 0.46 | 0.46 | 0.79 | 0.79 | 1.11 ± 0.217 µL/min/1e6 cells | 0.73 ± 0.268 µL/min/1e6 cells |  |  |  | fp, unbound fraction of the plasma protein ([4]; reported value): 0.46[40]
claudin-9: human claudin-9 protein from E. coli cell-free synthesis, coated on the permeable support (protein, UniProt O95484 1-217, looked up) Claudin-9: MASTGLELLGMTLAVLGWLGTLVSCALPLWKVTAFIGNSIVVAQVVWEGLWMSCVVQSTGQMQCKVYDSLLALPQDLQAARALCVIALLLALLGLLVAITGAQCTTCVEDEGAKARIVLTAGVILLLAGILVLIPVCWTAHAIIQDFYNPLVAEALKRELGASLYLGWAAAALLMLGGGLLCCTCPPPQVERPRGPRLGYSIPSRSGASGLDKRDYV |  |  |  |  |  |  |  |  |  |  |  |  |  |  |  |  | 35.9 ± 6.4% | 35.9% | 30.3% and 42.9% and 34.5% | 
claudin-3: human claudin-3 protein from E. coli cell-free synthesis, coated on the permeable support (protein, UniProt O15551 1-220, looked up) Claudin-3: MSMGLEITGTALAVLGWLGTIVCCALPMWRVSAFIGSNIITSQNIWEGLWMNCVVQSTGQMQCKVYDSLLALPQDLQAARALIVVAILLAAFGLLVALVGAQCTNCVQDDTAKAKITIVAGVLFLLAALLTLVPVSWSANTIIRDFYNPVVPEAQKREMGAGLYVGWAAAALQLLGGALLCCSCPPREKKYTATKVVYSAPRSTGPGASLGTGYDRKDYV |  |  |  |  |  |  |  |  |  |  |  |  |  |  |  |  | 38.6 ± 8.1% | 38.6% | 34.6% and 33.3% and 48.0% | 
claudin-2: human claudin-2 protein from E. coli cell-free synthesis, coated on the permeable support (protein, UniProt P57739 1-230, looked up) Claudin-2: MASLGLQLVGYILGLLGLLGTLVAMLLPSWKTSSYVGASIVTAVGFSKGLWMECATHSTGITQCDIYSTLLGLPADIQAAQAMMVTSSAISSLACIISVVGMRCTVFCQESRAKDRVAVAGGVFFILGGLLGFIPVAWNLHGILRDFYSPLVPDSMKFEIGEALYLGIISSLFSLIAGIILCFSCSSQRNRSNYYDAYQAQPLATRSSPRPGQPPKVKSEFNSYSLTGYV |  |  |  |  |  |  |  |  |  |  |  |  |  |  |  |  | 48.9 ± 12% | 48.9% | 36.6% and 60.0% and 50.0% | 
